The target in test [1] is T1, Peroxisome proliferator-activated receptor gamma (Mus musculus) (UniProt P37238).
T1 sequence (whole entry): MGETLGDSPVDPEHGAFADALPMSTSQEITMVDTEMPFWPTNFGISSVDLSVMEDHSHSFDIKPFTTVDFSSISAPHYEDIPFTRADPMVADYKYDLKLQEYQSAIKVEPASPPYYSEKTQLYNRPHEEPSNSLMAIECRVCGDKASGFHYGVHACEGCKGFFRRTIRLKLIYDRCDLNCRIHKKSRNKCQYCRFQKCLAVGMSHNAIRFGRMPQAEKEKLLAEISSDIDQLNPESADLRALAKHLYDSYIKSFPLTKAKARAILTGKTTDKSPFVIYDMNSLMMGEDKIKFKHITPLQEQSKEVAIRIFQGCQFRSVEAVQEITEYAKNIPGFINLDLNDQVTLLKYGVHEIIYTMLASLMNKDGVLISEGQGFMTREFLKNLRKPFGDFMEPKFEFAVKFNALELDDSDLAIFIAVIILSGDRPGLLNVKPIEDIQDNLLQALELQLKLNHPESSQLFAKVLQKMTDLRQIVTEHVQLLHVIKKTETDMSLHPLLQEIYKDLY
Briefly: Agonist activity at Mus musculus (mouse) PPARgamma LBD expressed in african green monkey CV-1 cells co-expressing GAL4 assessed as […] at 1 uM after 24 hr by luciferase assay relative to rosiglitazone. Type of test: cell-based.

Another test deals with 3T3-L1. Briefly: Induction of adipocyte differentiation in Mus musculus (mouse) 3T3L1 cells at 1 to 5 uM. Type of test: functional, cell-based.
Test [2] has as its target T2, Type-1 angiotensin II receptor A (Rattus norvegicus, UniProt P25095).
T2 sequence (P25095 whole entry): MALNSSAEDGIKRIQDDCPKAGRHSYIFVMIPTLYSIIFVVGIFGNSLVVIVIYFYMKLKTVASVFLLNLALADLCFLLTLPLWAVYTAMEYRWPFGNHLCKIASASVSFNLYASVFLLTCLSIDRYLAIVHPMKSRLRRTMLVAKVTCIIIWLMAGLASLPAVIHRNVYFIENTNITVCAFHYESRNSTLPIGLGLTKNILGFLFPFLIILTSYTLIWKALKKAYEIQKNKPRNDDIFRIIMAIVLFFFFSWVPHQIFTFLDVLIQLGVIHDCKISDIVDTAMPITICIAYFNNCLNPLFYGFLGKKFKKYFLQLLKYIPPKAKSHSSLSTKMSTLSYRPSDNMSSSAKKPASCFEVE
Briefly: Displacement of [125I]-SI-Ang-2 from AT1 receptor in Rattus norvegicus Sprague-Dawley (rat) liver membranes after 2 hr. Further details: species or system Membrane. For orientation: Displacement assays read how much labelled ligand stays bound in the presence of the test substance.

Active and inactive are the calls of the source. No cut-off for these calls is given here. A value given as a limit tells only on which side of the number the result lay.

`CCCc1nc2c(C)cc(-c3nc4ccccc4n3C)cc2n1Cc1ccc(-c2ccccc2C(=O)O)cc1`: the %max in test [1] is 21.2%. Moreover, the outcome in the test with 3T3-L1 was Active.

What is called Ki is a dissociation constant, usually derived from enzyme kinetics or from competition with a known ligand. For `CCCc1nc2c(C)cc(Br)cc2n1CCOc1ccc(CC2SC(=O)NC2=O)cc1C(=O)OC` (stereo unspecified), the Ki in test [2] was greater than 10 µM. For the same molecule, the %max in test [1] amounted to 51.6%.

As for `COC(=O)c1cc(CC2SC(=O)NC2=O)ccc1OCCn1c(CCCCC2CCCCC2)nc2ccccc21` (stereo unspecified), the Ki in test [2] is greater than 10 µM. Besides, in test [1], the %max is 38.7%.

Regarding `CCCc1nc2c(C)cc(-c3nc4ccccc4n3C)cc2n1CCOc1ccc(CC2SC(=O)NC2=O)cc1C(=O)OC` (stereo unspecified), the Ki in test [2] is greater than 10 µM.

In turn, `CCCc1nc2c(C)cc(-c3ccccc3)cc2n1CCOc1ccc(CC2SC(=O)NC2=O)cc1C(=O)OC` (stereo unspecified) registered a Ki in test [2] greater than 10 µM. Also, the %max in test [1] was found to be 11.9%.

As for `COC(=O)c1cc(CC2SC(=O)NC2=O)ccc1OCCN(C)C(=O)CCCCC1CCCCC1` (stereo unspecified), the Ki in test [2] is greater than 10 µM. The %max in test [1] is 90.4%.

(Values after ChEMBL document CHEMBL3045241, “Design, synthesis, and docking studies of novel telmisartanglitazone hybrid analogs for the treatment of metabolic syndrome” (Med Chem Res, 2009).)
